Measurements: patent US5889148A, “Antibiotic peptides” (priority 1995, dated 1999)
Non-standard residues stand in square brackets, D forms with d. No end group written: not given here. Aib = CC(C)(N)C(=O)O

Key:
[1] = system: Candida albicans (ATCC 36232); assay: MIC test, antifungal activity; type: cell-based
Description: (§1) Antibacterial and antifungal activities of the peptides were determined by employing MIC test as follows:
(§2) To determine antifungal activity, a test organism Candida albicans (ATCC 36232) was cultured on Sabouraud dextrose agar plate for 24 to 48 hrs, and colonies thus grown were suspended on Sabouraud dextrose medium(Gibco, USA) to have O.D.530 =0.5(3×10^6 cells) and further diluted with 100-fold to have O.D.530 =0.005(3×10^4 cells). 100 μl of Candida albicans culture thus prepared was pipetted on 96-well microplates which had already contained 100 μl of a serially diluted peptide solution.

[2] = system: Staphylococcus aureus (ATCC 6538); assay: MIC test, antibacterial activity; type: cell-based
Description: as §1, §2
Antibacterial activity of peptide was determined analogously as above, with an exception that Staphylococcus aureus (ATCC 6538) selected as a test organism was cultured on M-3 medium(Gibco, USA) at 37° C. and cell number was adjusted to 2×10^8 cells before 100-fold dilution.

[3] = Table 7, comparison with Ketoconazole (Example 3)
[4] = Table 8, TEDFK derivatives of group 1
[5] = Table 2, modification of N-terminal residues of TED
[6] = Table 11, enantiomer, retro-inverso, D-amino acid derivatives of M22

Substance | MIC against C. albicans [1, 3] [µg/mL] | MIC against C. albicans ([1]; Table 5, modification of TEDFK) [µg/mL] | MIC C. albicans [1, 4] [µg/mL] | MIC S. aureus [2, 4] [µg/mL] | further results
KFYCNGKRV[Aib]VCR-NH2 (cysteine pairing not given here) [TEDFK-2A] | 6 | – | – | – | MIC against C. albicans ([1]; Table 6, substitution of Cys in TEDFK with Aib): 5 µg/mL
KFYCNGRVCVCR--NH2 (KFYCNGRVCVCR-NH2; cysteine pairing not given here) [TEDFK-2] | 6 | 5 | – | – | –
KFYCNKKRVCVCR--NH2 (KFYCNKKRVCVCR-NH2; cysteine pairing not given here) [TEDFK-5] | 3 | 5 | – | – | –
KFYCNKRVCVCR--NH2 (KFYCNKRVCVCR-NH2; cysteine pairing not given here) [TEDFK-1] | – | 5 | – | – | –
KFYCNLKRVCVCR--NH2 (KFYCNLKRVCVCR-NH2; cysteine pairing not given here) [TEDFK-4] | – | 5 | – | – | –
KFYCNPGPVCVCR--NH2 (KFYCNPGPVCVCR-NH2; cysteine pairing not given here) [TEDFK-9] | 12 | 20 | – | – | –
KFYCNPKRVCVCR--NH2 (KFYCNPKRVCVCR-NH2; cysteine pairing not given here) [TEDFK-3] | 6 | 5 | – | – | –
KFYCNWKRVCVCR--NH2 (KFYCNWKRVCVCR-NH2; cysteine pairing not given here) [M30] | – | – | 12.5 | 12.7 | –
KFYCVGKRVCVCR--NH2 (KFYCVGKRVCVCR-NH2; cysteine pairing not given here) [TEDFK-6] | 6 | 5 | – | – | –
KFY[Aib]KGKRVCVCR-NH2 (cysteine pairing not given here) [M17] | – | – | 6.25 | 6.35 | –
KFY[Aib]KKVCVCK-NH2 (cysteine pairing not given here) [M8] | – | – | 3.12 | 3.16 | –
KFY[Aib]NGKRVCVCR-NH2 (cysteine pairing not given here) [TEDFK-1A] | 2 | – | – | – | –
KGKRVCVCR--NH2 (KGKRVCVCR-NH2; cysteine pairing not given here) [TED12] | – | – | – | – | MIC against C. albicans [1, 5]: > 500 µg/mL
KKYCNGKRVCVCR--NH2 (KKYCNGKRVCVCR-NH2; cysteine pairing not given here) [M1] | – | – | 3.12 | 3.16 | –
KKYCNKKCVCK--NH2 [M5] (KKYCNKKCVCK-NH2; cysteine pairing not given here) | – | – | 3.12 | 3.16 | –
KKYCNKKCVCK--NH2 [M6] (KKYCNKKCVCK-NH2; cysteine pairing not given here) | – | – | 3.12 | 3.16 | –
KKYCNXRVCVCR--NH2 [M4] | – | – | 3.12 | 3.16 | –
KKYIKKVFVFk--NH2 [M22-7] | – | – | – | – | MIC C. albicans [1, 6]: 3.12 µg/mL; MIC S. aureus [2, 6]: 3.11 µg/mL
KKYIVFVFK--NH2 (KKYIVFVFK-NH2) [M33] | – | – | – | – | MIC against C. albicans ([1]; Table 10, TEDFK derivatives of group 3): 3.12 µg/mL
KKYIkkVFVFK--NH2 [M22-27] | – | – | – | – | MIC C. albicans [1, 6]: 3.11 µg/mL; MIC S. aureus [2, 6]: 3.17 µg/mL
KKyIKKVFVFK--NH2 [M22-26] | – | – | – | – | MIC C. albicans [1, 6]: 3.15 µg/mL; MIC S. aureus [2, 6]: 3.16 µg/mL
LCNGKRVCVCR--NH2 (LCNGKRVCVCR-NH2; cysteine pairing not given here) [TED17] | – | – | – | – | MIC against C. albicans [1, 5]: 100 µg/mL
